Reference: ChEMBL document CHEMBL1157901, “Discovery of a tetrahydropyrimidin-2(1H)-one derivative (TAK-442) as a potent, selective, and orally active factor Xa inhibitor” (J Med Chem, 2010)

assay: Octanol-water partition coefficient, log D at pH 7.4; format: physicochemical; details: not given

Point of comparison: O=C([C@H](O)CS(=O)(=O)c1ccc2cc(Cl)ccc2c1)N1CCC(N2CCCC2=O)CC1, logD 1.96. Against it:
- O=C([C@H](O)CS(=O)(=O)c1ccc2cc(Cl)ccc2c1)N1CCC(N2Cc3ccccc3C2=O)CC1 — higher, 2.58
- O=C([C@H](O)CS(=O)(=O)c1ccc2cc(Cl)ccc2c1)N1CCC(N2C[C@@H]3CCCN3C2=O)CC1 — higher, 2.16
- O=C([C@H](O)CS(=O)(=O)c1ccc2cc(Cl)ccc2c1)N1CCC(N2C[C@H]3CCCN3C2=O)CC1 — higher, 2.16
- O=C([C@H](O)CS(=O)(=O)c1ccc2cc(Cl)ccc2c1)N1CCC(N2Cc3cccn3C2=O)CC1 — higher, 2.6
- O=C([C@H](O)CS(=O)(=O)c1ccc2cc(Cl)ccc2c1)N1CCC(n2cc[nH]c2=O)CC1 — within 0.2 log units, 1.79
- O=C([C@H](O)CS(=O)(=O)c1ccc2cc(Cl)ccc2c1)N1CCC(N2CCOC2=O)CC1 — lower, 1.75
- O=C([C@H](O)CS(=O)(=O)c1ccc2cc(Cl)ccc2c1)N1CCC(N2CCCS2(=O)=O)CC1 — lower, 1.69
- O=C([C@H](O)CS(=O)(=O)c1ccc2cc(Cl)ccc2c1)N1CCC(N2CCNC2=O)CC1 — lower, 1.73
- O=C([C@H](O)CS(=O)(=O)c1ccc2cc(Cl)ccc2c1)N1CCC(N2CCCCCC2=O)CC1 — higher, 2.52
- O=C([C@H](O)CS(=O)(=O)c1ccc2cc(Cl)ccc2c1)N1CCC(N2CCCC2)CC1 — lower, 1.56
- O=C([C@H](O)CS(=O)(=O)c1ccc2cc(Cl)ccc2c1)N1CCC(N2CCCOC2=O)CC1 — lower, 1.67
- O=C([C@H](O)CS(=O)(=O)c1ccc2cc(Cl)ccc2c1)N1CCC(N2CCOCC2=O)CC1 — within 0.2 log units, 1.85
- O=C([C@H](O)CS(=O)(=O)c1ccc2cc(Cl)ccc2c1)N1CCC(N2CCCCC2=O)CC1 — higher, 2.19
- O=C([C@H](O)CS(=O)(=O)c1ccc2cc(Cl)ccc2c1)N1CCC(N2NCCCC2=O)CC1 — within 0.2 log units, 1.85
- Cc1ncc2n1C(=O)N(C1CCN(C(=O)[C@H](O)CS(=O)(=O)c3ccc4cc(Cl)ccc4c3)CC1)C2 — within 0.2 log units, 2.13
- O=C([C@H](O)CS(=O)(=O)c1ccc2cc(Cl)ccc2c1)N1CCC(N2CCCNC2=O)CC1 [LETAXABAN] — within 0.2 log units, 1.81

assay: Metabolic stability in monkey liver microsomes assessed as compound remaining after 120 mins by HPLC; format: ADME, Macaca mulatta, Microsome; details: rhesus monkey, read-out: Activity

Cc1ncc2n1C(=O)N(C1CCN(C(=O)CCS(=O)(=O)c3ccc4cc(Cl)ccc4c3)CC1)C2 gave a remaining at 2 h of 99.9%.

assay: Metabolic stability in human liver microsomes assessed as compound remaining after 120 mins by HPLC; format: ADME, Microsome; details: read-out: Activity

Cc1ncc2n1C(=O)N(C1CCN(C(=O)CCS(=O)(=O)c3ccc4cc(Cl)ccc4c3)CC1)C2 gave a remaining at 2 h of 70.5%.
